These results are taken from patent US8815882B2, “Pyrazole aminopyrimidine derivatives as LRRK2 modulators” (Genentech, Inc., priority 2010, dated 2014).

T1 sequence (Q5S007 whole entry G2019S): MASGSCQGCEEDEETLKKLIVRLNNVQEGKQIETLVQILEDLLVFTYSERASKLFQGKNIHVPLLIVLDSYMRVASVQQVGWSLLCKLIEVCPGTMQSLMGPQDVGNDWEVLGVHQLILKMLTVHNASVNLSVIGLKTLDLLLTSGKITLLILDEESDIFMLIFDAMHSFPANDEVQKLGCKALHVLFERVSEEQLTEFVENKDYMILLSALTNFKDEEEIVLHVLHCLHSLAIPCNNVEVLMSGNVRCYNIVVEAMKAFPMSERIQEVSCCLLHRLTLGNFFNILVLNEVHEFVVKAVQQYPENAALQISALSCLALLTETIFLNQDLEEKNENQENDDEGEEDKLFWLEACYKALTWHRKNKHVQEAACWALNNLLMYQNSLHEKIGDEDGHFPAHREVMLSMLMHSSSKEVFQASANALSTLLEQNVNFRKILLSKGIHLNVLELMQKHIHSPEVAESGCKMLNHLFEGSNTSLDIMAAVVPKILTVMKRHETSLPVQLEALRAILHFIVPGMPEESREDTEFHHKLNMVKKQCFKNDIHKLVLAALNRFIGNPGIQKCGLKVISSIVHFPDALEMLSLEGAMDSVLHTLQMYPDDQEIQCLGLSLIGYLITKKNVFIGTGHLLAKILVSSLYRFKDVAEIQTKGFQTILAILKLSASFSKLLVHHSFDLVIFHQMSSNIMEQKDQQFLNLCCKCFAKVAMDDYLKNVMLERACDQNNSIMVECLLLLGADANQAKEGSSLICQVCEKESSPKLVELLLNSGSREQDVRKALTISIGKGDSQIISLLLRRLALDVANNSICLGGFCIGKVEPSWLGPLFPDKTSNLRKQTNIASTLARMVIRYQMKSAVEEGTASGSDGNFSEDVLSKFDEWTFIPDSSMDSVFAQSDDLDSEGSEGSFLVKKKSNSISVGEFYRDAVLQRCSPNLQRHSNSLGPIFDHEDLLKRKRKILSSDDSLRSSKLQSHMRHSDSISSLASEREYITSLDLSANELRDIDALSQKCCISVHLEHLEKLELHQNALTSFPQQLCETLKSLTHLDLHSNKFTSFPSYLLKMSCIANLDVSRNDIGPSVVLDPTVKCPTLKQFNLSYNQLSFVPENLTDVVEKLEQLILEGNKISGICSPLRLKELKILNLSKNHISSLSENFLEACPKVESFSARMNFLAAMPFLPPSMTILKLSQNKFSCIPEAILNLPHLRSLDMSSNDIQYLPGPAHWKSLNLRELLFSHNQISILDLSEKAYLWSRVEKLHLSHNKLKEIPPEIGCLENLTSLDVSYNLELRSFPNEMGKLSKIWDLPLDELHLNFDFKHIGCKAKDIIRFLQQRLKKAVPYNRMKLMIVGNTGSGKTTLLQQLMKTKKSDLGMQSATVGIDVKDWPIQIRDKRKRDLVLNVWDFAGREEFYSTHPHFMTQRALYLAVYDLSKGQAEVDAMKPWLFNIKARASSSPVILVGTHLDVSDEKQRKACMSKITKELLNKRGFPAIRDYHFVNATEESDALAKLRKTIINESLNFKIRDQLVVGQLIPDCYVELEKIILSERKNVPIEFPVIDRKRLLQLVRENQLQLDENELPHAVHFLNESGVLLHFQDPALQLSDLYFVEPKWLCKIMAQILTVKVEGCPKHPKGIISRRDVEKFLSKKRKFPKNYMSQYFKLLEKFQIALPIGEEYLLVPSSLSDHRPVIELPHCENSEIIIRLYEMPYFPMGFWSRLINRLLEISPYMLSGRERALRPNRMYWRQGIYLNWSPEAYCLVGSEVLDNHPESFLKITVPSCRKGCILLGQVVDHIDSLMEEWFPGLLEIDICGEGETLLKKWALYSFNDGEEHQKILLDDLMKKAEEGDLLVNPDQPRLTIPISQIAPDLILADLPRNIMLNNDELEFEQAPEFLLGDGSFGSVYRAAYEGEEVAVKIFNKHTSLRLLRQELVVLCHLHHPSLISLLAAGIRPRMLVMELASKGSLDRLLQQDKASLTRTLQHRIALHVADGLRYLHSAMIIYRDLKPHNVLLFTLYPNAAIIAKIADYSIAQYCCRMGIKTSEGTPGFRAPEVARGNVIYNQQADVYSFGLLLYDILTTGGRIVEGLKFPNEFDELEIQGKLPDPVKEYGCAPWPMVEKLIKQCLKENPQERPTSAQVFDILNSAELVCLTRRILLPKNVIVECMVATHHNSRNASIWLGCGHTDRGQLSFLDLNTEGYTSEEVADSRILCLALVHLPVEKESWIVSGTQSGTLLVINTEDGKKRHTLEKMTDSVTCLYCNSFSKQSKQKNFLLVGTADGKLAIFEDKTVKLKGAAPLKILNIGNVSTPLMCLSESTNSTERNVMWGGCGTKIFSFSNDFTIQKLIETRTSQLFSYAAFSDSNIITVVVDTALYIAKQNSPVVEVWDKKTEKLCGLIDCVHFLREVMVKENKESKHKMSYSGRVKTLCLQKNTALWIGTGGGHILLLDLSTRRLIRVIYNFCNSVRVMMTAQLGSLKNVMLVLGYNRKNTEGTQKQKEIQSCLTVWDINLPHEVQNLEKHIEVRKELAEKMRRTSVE

The first assay addresses T1, LRRK2 (Homo sapiens, UniProt Q5S007, G2019S).
T1 construct: purchased Invitrogen PV4882 (lot 567054A)
Kind of assay: In Vitro LRRK2 Assay (LabChip 3000, fluorescently-labeled peptide substrate, ATP). The following applies: Table 9; LRRK2 Ki (micromolar); read-out: LRRK2 Ki (KI). Type of assay: biochemical. The procedure: This assay was used to determine a compound's potency in inhibiting activity of LRRK2 by determining, Kiapp, IC50, or percent inhibition values. In a polypropylene plate, LRRK2, fluorescently-labeled peptide substrate, ATP and test compound were incubated together. Using a LabChip 3000 (Caliper Life Sciences), after the reaction the substrate was separated by capillary electrophoresis into two populations: phosphorylated and unphosphorylated. The relative amounts of each were quantitated by fluorescence intensity. LRRK2 Ki was determined according to the equation: Y=V0*(1−(x+Ki*(1+S/Km)+Et)/(2*Et)−(((x+Ki*(1+S/Km)+Et)^2−(4*Et*x))^0.5)/(2*Et))). Ki values in Table 4 and elsewhere herein are shown in μM.
Assay conditions and materials used were as follows:
Compound Plate Preparation:
For serial dilutions, 34.6 μl DMSO was added to columns 3-24.
Total and Blank Preparation:
In Complete Reaction Buffer, substrate was diluted to 4 μM. Equal volumes of Complete Reaction Buffer and 4 μM substrate were combined to obtain the blank. Equal volumes of Complete Reaction Buffer and 4 μM substrate were combined and to the combined solution was added 2× final LRRK2 concentration.
To a 50 μl polypropylene plate, 5 μl/well buffer/substrate was added by hand to Blank wells. A Biomek FX was used to start the kinase reaction (“PLK SAR 23 ATP”). The following were added to the appropriate wells:
5 μl/well compound/ATP in Assay Plate;
5 μl/well kinase/substrate in Assay Plate;
The plate was incubated for 2 hours in the dark. Biomek FX was used to stop the kinase reaction (“PLK Stop”), and 10 μl/well Stop solution was added to the Assay Plate. Results were read on the LabChip 3000.
The LabChip 3000 was run using the job “LRRK2 IC50” with the following job settings: […]
What is called Ki is the dissociation constant of the complex between target and ligand, obtained from inhibition or displacement. `CNc1nc(Nc2cnn(C3COC3)c2C)ncc1C#N` [Example 388, 4-Methylamino-2-(5-methyl-1-oxetan-3-yl-1H-pyrazol-4-ylamino)-pyrimidine-5-carbonitrile]: the inhibition constant Ki is 32.2 nM.

The assay is the same for the next values; noted with them: Table 10; LRRK2 Ki (micromolar); read-out: LRRK2 Ki (KI).
Regarding `CNc1nc(Nc2cnn(C3(C#N)CC3)c2Cl)ncc1C(F)(F)F` [Example 422, 1-(5-chloro-4-(4-(methylamino)-5-(trifluoromethyl)pyrimidin-2-ylamino)-1H-pyrazol-1-yl)cyclopropane-carbonitrile], the inhibition constant Ki was 2.3 nM.

The assay is the same for the next values; noted with them: read-out: LRRK2 Ki (KI), Table 7.
For the compound `COc1nc(Nc2cn(-c3ccccc3)nc2C)ncc1Cl` [Example 76, (5-Chloro-4-methoxy-pyrimidin-2-yl)-(3-methyl-1-phenyl-1H-pyrazol-4-yl)-amine], the inhibition constant (Ki) amounted to 2.3 nM.

For the compound `CNc1nc(Nc2ccn(C(C)C)n2)ncc1C(F)(F)F` [Example 57, N^2-(1-isopropyl-1H-pyrazol-3-yl)-N4-methyl-5-(trifluoromethyl) pyrimidine-2,4-diamine], the Ki was determined as 2.5 nM.

For `COc1nc(Nc2cnn(-c3ccccc3)c2C)ncc1Cl` [Example 56, 5-chloro-4-methoxy-N-(5-methyl-1-phenyl-1H-pyrazol-4-yl)pyrimidin-2-amine], the Ki came to 27 nM.

As to `COc1nc(Nc2cn(C(C)C)nc2C)ncc1Cl` [Example 29, 5-Chloro-N-(1-isopropyl-3-methyl-1H-pyrazol-4-yl)-4-methoxy-pyrimidin-2-amine], the Ki was 22 nM.

Consider `COc1nc(Nc2cn(C3CCN(C(=O)C4(C)CC4)CC3)nc2C)ncc1Cl` [Example 66, (4-(4-(5-chloro-4-methoxy-pyrimidin-2-ylamino)-3-methyl-1H-pyrazol-1-yl)piperidin-1-yl)(1-methylcyclo-propyl) methanone], for which the Ki came out at 66 nM.

For `COc1nc(Nc2cnn(C3CCOCC3)c2Cl)ncc1Cl` [Example 85, (5-Chloro-4-methoxy-pyrimidin-2-yl)-[5-chloro-1-(tetrahydro-pyran-4-yl)-1H-pyrazol-4-yl]-amine], the Ki stood at 6.6 nM.

The assay is the same for the next values; noted with them: read-out: LRRK2 Ki (KI), Table 8.
For `CCNc1nc(Nc2cn(C3CCOCC3)nc2C)ncc1C(F)(F)F` [Example 159, N4-ethyl-N2-(3-methyl-1-(tetrahydro-2H-pyran-4-yl)-1H-pyrazol-4-yl)-5-(trifluoromethyl) pyrimidine-2,4-diamine], the inhibition constant (Ki) was 3.9 nM.

`CCNc1nc(Nc2cn(C(C)(C)c3ncn(C)n3)nc2C)ncc1C(F)(F)F` [Example 338, N4-ethyl-N2-(3-methyl-1-(2-(1-methyl-1H-1,2,4-triazol-3-yl)propan-2-yl)-1H-pyrazol-4-yl)-5-(trifluoromethyl) pyrimidine-2,4-diamine]: the Ki was 0.3 nM.

As for `CNc1nc(Nc2cn(-c3ccc(S(C)(=O)=O)cc3)nc2C)ncc1C(F)(F)F` [Example 124, N4-methyl-N2-(3-methyl-1-(4-(methylsulfonyl)phenyl)-1H-pyrazol-4-yl)-5-(trifluoromethyl) pyrimidine-2,4-diamine], the Ki is 0.3 nM.

For the compound `CNc1nc(Nc2cn([C@@H]3CCN(C)C3)nc2C)ncc1C(F)(F)F` [Example 233, (R)-N4-methyl-N2-(3-methyl-1-(1-methylpyrrolidin-3-yl)-1H-pyrazol-4-yl)-5-(trifluoromethyl) pyrimidine-2,4-diamine], the inhibition constant (Ki) was 61 nM.

As to `Cc1c(Nc2ncc(Cl)c(NCC(F)F)n2)cnn1C` [Example 172, 5-chloro-N4-(2,2-difluoroethyl)-N2-(1,5-dimethyl-1H-pyrazol-4-yl)pyrimidine-2,4-diamine], the inhibitory constant (Ki) was 7 nM.

Turning to `CNc1nc(Nc2cnn(C3CCC(=O)NC3)c2C)ncc1C(F)(F)F` (centres unmarked) [Example 154, 5-(5-methyl-4-(4-(methylamino)-5-(trifluoromethyl)pyrimidin-2-ylamino)-1H-pyrazol-1-yl)piperidin-2-one], the Ki was determined as 2.2 nM.

As for `CNc1nc(Nc2cnn(CC3CC3)c2Cl)ncc1C(F)(F)F` [Example 146, N2-(5-chloro-1-(cyclopropyl-methyl)-1H-pyrazol-4-yl)-N4-methyl-5-(trifluoromethyl) pyrimidine-2,4-diamine], the inhibition constant Ki came to 0.3 nM.

Turning to `CNc1nc(Nc2cn(C3CN(C(C)C)C3)nc2C)ncc1C(F)(F)F` [Example 214, N2-(1-(1-isopropylazetidin-3-yl)-3-methyl-1H-pyrazol-4-yl)-N4-methyl-5-(trifluoromethyl) pyrimidine-2,4-diamine], the Ki stood at 64 nM.

As for `CNc1nc(Nc2cnn(CC(C)(C)N3CCOCC3)c2C)ncc1C(F)(F)F` [Example 288, N4-Methyl-N2-[5-methyl-1-(2-methyl-2-morpholin-4-yl-propyl)-1H-pyrazol-4-yl]-5-trifluoromethyl-pyrimidine-2,4-diamine], the inhibition constant Ki was determined as 7.7 nM.

For `CCNc1nc(Nc2cn(C(C)(C)c3nncn3C)nc2C)ncc1C(F)(F)F` [Example 337, N4-ethyl-N2-(3-methyl-1-(2-(4-methyl-4H-1,2,4-triazol-3-yl)propan-2-yl)-1H-pyrazol-4-yl)-5-(trifluoromethyl) pyrimidine-2,4-diamine], the Ki amounted to 7.6 nM.

Take `CCNc1nc(Nc2cn(C3CCN(C(=O)C4CC4)CC3)nc2C)ncc1C(F)(F)F` [Example 183, cyclopropyl(4-(4-(4-(ethylamino)-5-(trifluoromethyl)pyrimidin-2-ylamino)-3-methyl-1H-pyrazol-1-yl)piperidin-1-yl)methanone]: the Ki stood at 0.6 nM.

With `CNc1nc(Nc2cnn(Cc3ccn(C)n3)c2C)ncc1C(F)(F)F` [Example 324, N4-Methyl-N2-[5-methyl-1-(1-methyl-1H-pyrazol-3-ylmethyl)-1H-pyrazol-4-yl]-5-trifluoromethyl-pyrimidine-2,4-diamine], the Ki is 0.6 nM.

Turning to `CCNc1nc(Nc2cnn(C)c2C2CCC2)ncc1C(F)(F)F` [Example 280, N2-(5-Cyclobutyl-1-methyl-1H-pyrazol-4-yl)-N4-ethyl-5-trifluoromethyl-pyrimidine-2,4-diamine], the inhibition constant Ki is 3.6 nM.

On to `CNc1nc(Nc2cn(Cc3ccn(C)n3)nc2C)ncc1C(F)(F)F` [Example 325, N4-Methyl-N2-[3-methyl-1-(1-methyl-1H-pyrazol-3-ylmethyl)-1H-pyrazol-4-yl]-5-trifluoromethyl-pyrimidine-2,4-diamine], for which the Ki was 3.8 nM.

As to `CNc1nc(Nc2ccnn2C)ncc1Br` [Example 99, 5-bromo-N4-methyl-N2-(1-methyl-1H-pyrazol-5-yl)pyrimidine-2,4-diamine], the Ki came out at 5.4 nM.

On to `CCNc1nc(Nc2cnn(-c3ccc(C#N)cc3)c2C)ncc1C(F)(F)F` [Example 162, 4-(4-(4-(ethylamino)-5-(trifluoromethyl)pyrimidin-2-ylamino)-5-methyl-1H-pyrazol-1-yl)benzonitrile], for which the Ki worked out at 0.3 nM.

`CNc1nc(Nc2cn(C(C)(C)CN3CCOCC3)nc2C)ncc1C(F)(F)F` [Example 299, N2-[1-(1,1-Dimethyl-2-morpholin-4-yl-ethyl)-3-methyl-1H-pyrazol-4-yl]-N4-methyl-5-trifluoromethyl-pyrimidine-2,4-diamine]: the inhibitory constant (Ki) came out at 22.8 nM.

With `CCNc1nc(Nc2cn(C(C)(C)c3nnc[nH]3)nc2C)ncc1C(F)(F)F` [Example 327, N4-Ethyl-N2-{3-methyl-1-[1-methyl-1-(4H-[1,2,4]triazol-3-yl)-ethyl]-1H-pyrazol-4-yl}-5-trifluoromethyl-pyrimidine-2,4-diamine], the Ki is 0.5 nM.
